Assays:
redroot pigweed = test: Test Example 5: herbicidal effect by foliage application, plastic box (Table 20, symbol N); format: in vivo, redroot pigweed (Amaranthus retroflexus); conditions: 320 g/ha; for N: redroot pigweed, herbicidal effect grade: foliage application, three weeks after application
Outline: (§1)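 Plants were sown into sterilized diluvial soil under about 1.5 cm cover and kept in a greenhouse at 25° C. to 30° C. Fourteen days on, foliage received an even spray of the diluted emulsion. Herbicidal or crop effect was judged three weeks afterwards.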

chickweed [1] = test: Test Example 4: herbicidal effect by soil treatment (Table 19, symbol P); format: in vivo, common chickweed (Stellaria media); conditions: amount of applied herbicide 320 g/ha
Outline: (§2)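 Pre-emergence style soil spray: seeds under ~1.5 cm sterilized diluvial soil received a uniform coat of emulsion diluted to the predetermined herbicide amount. Greenhouse 25–30° C; readout at week three on previously defined criteria.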

oval-leafed pondweed = test: Test Example 2: herbicidal activity, application during weed generation under submerged conditions (Table 17, symbol C); format: in vivo, oval-leafed pondweed (Monochoria vaginalis); conditions: AAH 320 g/ha; application during weed generation, submerged conditions
Outline: (§3)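 Steps: fill Wagner pots with alluvial soil; add water to give 4 cm depth; sow the species mixed; grow under glass at 25–30° C.; at 1–2 leaves apply water-diluted emulsion formulation to the water surface at a fixed herbicide amount; score after 3 weeks.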

windgrass [2] = test: Test Example 5: herbicidal effect by foliage application, plastic box (Table 20, symbol L); format: in vivo, windgrass (Apera spica-venti); conditions: 320 g/ha; for L: windgrass, herbicidal effect grade: foliage application, three weeks after application
Outline: as §1

Japanese bulrush = test: Test Example 1: herbicidal activity, application before weed generation under submerged conditions (Table 16, symbol B); format: in vivo, Japanese bulrush (Schoenoplectus juncoides); conditions: amount of applied herbicide 320 g/ha
Outline: (§4)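 Emulsion formulation, water-diluted to set dose, was put onto the flooded surface (4 cm depth, alluvial soil) the same day weeds were sown and 2.5-leaf rice transplanted. After 3 weeks at 25-30 °C under glass, each species was rated 0 (≤5% kill) to 5 (≥90% kill).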

barnyard grass [3] = test: Test Example 4: herbicidal effect by soil treatment (Table 19, symbol H); format: in vivo, barnyard grass (Echinochloa crus-galli); conditions: amount of applied herbicide 320 g/ha
Outline: as §2

velvetleaf = test: Test Example 4: herbicidal effect by soil treatment (Table 19, symbol M); format: in vivo, velvetleaf (Abutilon theophrasti); conditions: amount of applied herbicide 320 g/ha
Outline: as §2

persian speedwell [4] = test: Test Example 5: herbicidal effect by foliage application, plastic box (Table 20, symbol R); format: in vivo, Persian speedwell (Veronica persica); conditions: 320 g/ha; for R: persian speedwell, herbicidal effect grade: foliage application, three weeks after application
Outline: as §1

lambsquarters = test: Test Example 4: herbicidal effect by soil treatment (Table 19, symbol O); format: in vivo, lambsquarters (Chenopodium album); conditions: amount of applied herbicide 320 g/ha
Outline: as §2

Italian ryegrass = test: Test Example 4: herbicidal effect by soil treatment (Table 19, symbol K); format: in vivo, Italian ryegrass (Lolium multiflorum); conditions: amount of applied herbicide 320 g/ha
Outline: as §2

late watergrass [5] = test: Test Example 2: herbicidal activity, application during weed generation under submerged conditions (Table 17, symbol A); format: in vivo, late watergrass (Echinochloa oryzicola); conditions: AAH 320 g/ha; application during weed generation, submerged conditions
Outline: as §3

persian speedwell [6] = test: Test Example 4: herbicidal effect by soil treatment (Table 19, symbol R); format: in vivo, Persian speedwell (Veronica persica); conditions: amount of applied herbicide 320 g/ha
Outline: as §2

late watergrass [7] = test: Test Example 1: herbicidal activity, application before weed generation under submerged conditions (Table 16, symbol A); format: in vivo, late watergrass (Echinochloa oryzicola); conditions: amount of applied herbicide 320 g/ha
Outline: as §4

windgrass [8] = test: Test Example 4: herbicidal effect by soil treatment (Table 19, symbol L); format: in vivo, windgrass (Apera spica-venti); conditions: amount of applied herbicide 320 g/ha
Outline: as §2

chickweed [9] = test: Test Example 5: herbicidal effect by foliage application, plastic box (Table 20, symbol P); format: in vivo, common chickweed (Stellaria media); conditions: 320 g/ha; for P: chickweed, herbicidal effect grade: foliage application, three weeks after application
Outline: as §1

green foxtail = test: Test Example 5: herbicidal effect by foliage application, plastic box (Table 20, symbol G); format: in vivo, green foxtail (Setaria viridis); conditions: 320 g/ha; for G: green foxtail, herbicidal effect grade: foliage application, three weeks after application
Outline: as §1

barnyard grass [10] = test: Test Example 3: herbicidal effect by foliage application, Wagner pot (Table 18, symbol H); format: in vivo, barnyard grass (Echinochloa crus-galli); conditions: for herbicidal effect on barnyard grass (H): 320 g/ha
Outline: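 Plants were sown in alluvial soil held under 0.1–0.5 cm standing water and grown 14 days in a greenhouse at 25–30 °C. An emulsifiable formulation, water-diluted to the set dose, was then sprayed onto the foliage, and effects were scored three weeks later using previously defined criteria.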

[11] = foliage application after 14-day growth, evaluated three weeks after application

Q: CCOc1ccc2c(-c3c(O)c(C)nn(C)c3=O)c(-c3ccc(F)cc3OCC)sc2c1 [3-095] was tested. Which “N: redroot pigweed, herbicidal effect grade” value (redroot pigweed) did it give?
A: The value was 5 (Herbicidal rate of 90% or more (almost completely withered)).

Q: What about the “P: chickweed, herbicidal effect grade” value (chickweed [1]) of the same molecule?
A: Its value is 4 (Herbicidal rate of 70% or more and less than 90%).

Q: And the “herbicidal effect rating, C: oval-leafed pondweed” value (oval-leafed pondweed)?
A: The value was 5 (Herbicidal rate of 90% or more (almost completely withered)).

Q: And the “L: windgrass, herbicidal effect grade” value (windgrass [2])?
A: The value was 5 (Herbicidal rate of 90% or more (almost completely withered)).

Q: And the “Herbicidal effect, B: Japanese bulrush” value (Japanese bulrush)?
A: Its value is 5 (Herbicidal rate of 90% or more (almost completely withered)).

Q: And the “H: barnyard grass, herbicidal effect grade” value (barnyard grass [3])?
A: Its value is 5 (Herbicidal rate of 90% or more (almost completely withered)).

Q: And the “M: velvetleaf, herbicidal effect grade” value (velvetleaf)?
A: Its value is 3 (Herbicidal rate of 40% or more and less than 70%).

Q: And the “R: persian speedwell, herbicidal effect grade” value (persian speedwell [4])?
A: The value was 5 (Herbicidal rate of 90% or more (almost completely withered)).

Q: What about the “O: lambsquarters, herbicidal effect grade” value (lambsquarters) of the same molecule?
A: Its value is 5 (Herbicidal rate of 90% or more (almost completely withered)).

Q: And the “K: Italian ryegrass, herbicidal effect grade” value (Italian ryegrass)?
A: Its value is 2 (Herbicidal rate of 20% or more and less than 40%).

Q: And the “herbicidal effect rating, A: late watergrass” value (late watergrass [5])?
A: The value was 4 (Herbicidal rate of 70% or more and less than 90%).

Q: What about the “R: persian speedwell, herbicidal effect grade” value (persian speedwell [6]) of the same molecule?
A: Its value is 5 (Herbicidal rate of 90% or more (almost completely withered)).

Q: What about the “Herbicidal effect, A: late watergrass” value (late watergrass [7]) of the same molecule?
A: The value was 5 (Herbicidal rate of 90% or more (almost completely withered)).

Q: And the “L: windgrass, herbicidal effect grade” value (windgrass [8])?
A: Its value is 4 (Herbicidal rate of 70% or more and less than 90%).

Q: And the “P: chickweed, herbicidal effect grade” value (chickweed [9])?
A: Its value is 5 (Herbicidal rate of 90% or more (almost completely withered)).

Q: What about the “G: green foxtail, herbicidal effect grade” value (green foxtail) of the same molecule?
A: The value was 3 (Herbicidal rate of 40% or more and less than 70%).

Q: What about the “herbicidal effect on barnyard grass (H)” value (barnyard grass [10]) of the same molecule?
A: The value was 5 (Herbicidal rate of 90% or more (almost completely withered)).

Q: Which results are given for CCCC(=O)Oc1c(C)nn(C)c(=O)c1-c1c(-c2ccc(F)cc2)sc2cc(F)ccc12 [3-002]?
A: N: redroot pigweed, herbicidal effect grade (redroot pigweed): 5 (Herbicidal rate of 90% or more (almost completely withered)); herbicidal effect, P: chickweed (chickweed [1]): 3 (Herbicidal rate of 40% or more and less than 70%); herbicidal effect rating, C: oval-leafed pondweed (oval-leafed pondweed): 4 (Herbicidal rate of 70% or more and less than 90%); L: windgrass, herbicidal effect grade (windgrass [2]): 1 (Herbicidal rate of 5% or more and less than 20%); Herbicidal effect, B: Japanese bulrush (Japanese bulrush): 3 (Herbicidal rate of 40% or more and less than 70%); herbicidal effect, H: barnyard grass (barnyard grass [3]): 0 (Herbicidal rate of 5% or less (almost no effect)); herbicidal effect, M: velvetleaf (velvetleaf): 0 (Herbicidal rate of 5% or less (almost no effect)); R: persian speedwell, herbicidal effect grade (persian speedwell [4]): 5 (Herbicidal rate of 90% or more (almost completely withered)); herbicidal effect, O: lambsquarters (lambsquarters): 4 (Herbicidal rate of 70% or more and less than 90%); herbicidal effect, K: Italian ryegrass (Italian ryegrass): 4 (Herbicidal rate of 70% or more and less than 90%); herbicidal effect rating, A: late watergrass (late watergrass [5]): 3 (Herbicidal rate of 40% or more and less than 70%); herbicidal effect, R: persian speedwell (persian speedwell [6]): 5 (Herbicidal rate of 90% or more (almost completely withered)); Herbicidal effect, A: late watergrass (late watergrass [7]): 5 (Herbicidal rate of 90% or more (almost completely withered)); herbicidal effect, L: windgrass (windgrass [8]): 3 (Herbicidal rate of 40% or more and less than 70%); P: chickweed, herbicidal effect grade (chickweed [9]): 5 (Herbicidal rate of 90% or more (almost completely withered)); G: green foxtail, herbicidal effect grade (green foxtail): 4 (Herbicidal rate of 70% or more and less than 90%); herbicidal effect on H: barnyard grass (barnyard grass [10]; amount of applied herbicide 320 g/ha): 5 (Herbicidal rate of 90% or more (almost completely withered))

Q: With CCCC(=O)Oc1c(C)nn(C)c(=O)c1-c1c(-c2ccc(F)cc2OCC)sc2c(Cl)cccc12 [4-036] as the molecule, how does the “herbicidal effect on N: redroot pigweed (evaluation grade 0-5)” value (redroot pigweed; [11]) read?
A: The value was 5 (Herbicidal rate of 90% or more (almost completely withered)).

Q: And the “Herbicidal effect by soil treatment, P: chickweed” value (chickweed [1])?
A: The value was 2 (Herbicidal rate of 20% or more and less than 40%).

Q: And the “herbicidal effect rating, C: oval-leafed pondweed” value (oval-leafed pondweed)?
A: The value was 0 (Herbicidal rate of 5% or less (almost no effect)).

Q: And the “herbicidal effect on L: windgrass (evaluation grade 0-5)” value (windgrass [2]; [11])?
A: The value was 4 (Herbicidal rate of 70% or more and less than 90%).

Q: And the “Herbicidal effect, B: Japanese bulrush” value (Japanese bulrush)?
A: The value was 3 (Herbicidal rate of 40% or more and less than 70%).

Q: What about the “Herbicidal effect by soil treatment, H: barnyard grass” value (barnyard grass [3]) of the same molecule?
A: Its value is 3 (Herbicidal rate of 40% or more and less than 70%).

Q: What about the “Herbicidal effect by soil treatment, M: velvetleaf” value (velvetleaf) of the same molecule?
A: The value was 2 (Herbicidal rate of 20% or more and less than 40%).

Q: And the “herbicidal effect on R: persian speedwell (evaluation grade 0-5)” value (persian speedwell [4]; [11])?
A: The value was 4 (Herbicidal rate of 70% or more and less than 90%).

Q: What about the “Herbicidal effect by soil treatment, O: lambsquarters” value (lambsquarters) of the same molecule?
A: Its value is 1 (Herbicidal rate of 5% or more and less than 20%).

Q: What about the “Herbicidal effect by soil treatment, K: Italian ryegrass” value (Italian ryegrass) of the same molecule?
A: Its value is 0 (Herbicidal rate of 5% or less (almost no effect)).

Q: And the “herbicidal effect rating, A: late watergrass” value (late watergrass [5])?
A: The value was 3 (Herbicidal rate of 40% or more and less than 70%).

Q: And the “Herbicidal effect by soil treatment, R: persian speedwell” value (persian speedwell [6])?
A: Its value is 2 (Herbicidal rate of 20% or more and less than 40%).

Q: And the “Herbicidal effect, A: late watergrass” value (late watergrass [7])?
A: Its value is 4 (Herbicidal rate of 70% or more and less than 90%).

Q: What about the “Herbicidal effect by soil treatment, L: windgrass” value (windgrass [8]) of the same molecule?
A: Its value is 0 (Herbicidal rate of 5% or less (almost no effect)).

Q: What about the “herbicidal effect on P: chickweed (evaluation grade 0-5)” value (chickweed [9]; [11]) of the same molecule?
A: The value was 5 (Herbicidal rate of 90% or more (almost completely withered)).

Q: And the “herbicidal effect on G: green foxtail (evaluation grade 0-5)” value (green foxtail; [11])?
A: The value was 5 (Herbicidal rate of 90% or more (almost completely withered)).

Q: And the “herbicidal effect on barnyard grass (H)” value (barnyard grass [10])?
A: Its value is 5 (Herbicidal rate of 90% or more (almost completely withered)).

From patent publication US20230085307A1, “PYRIDAZINONE COMPOUND AND HERBICIDE” (NISSAN CHEMICAL CORPORATION, priority 2019, published 2023)
